According to US20260199367A1, “PLK1 DEGRADATION INDUCING COMPOUNDS WITH INCREASED RIGIDITY” (UPPTHERA, INC., priority 2022, published 2026):
pIC50: −log10 of the molar value.

How the values were obtained:
Type in all cases: cell-based
NCI-H69 (H69) cell line = experiment: Cell viability assay for NCI-H69 cell line; settings: Homo sapiens, NCI-H69, 120 h, 5 days, EZ-Cytox, 0.46-3000 nM
Description: (§1) The NCI-H69 (hereafter H69) and NCI-H526 (hereafter H526) cell lines were purchased from Korea Cell Line Bank (KCLB, Seoul, Korea). For cell culture, RPMI 1640 (Gibco, Cat. No. 22400-089; Lot. No. 2537146), FBS (Gibco, Cat. No. 16000-044; Lot. No. 2511328P), Penicillin/Streptomycin (PS) (Gibco, Cat. No. 15140-122; Lot. No. 2441887), 75T cell culture flask (SPL, Cat. No. 71075), 175T cell culture flask (SPL, Cat. No. 71175), 96-well cell culture plate (SPL, Cat. No. 30096), PBS pH 7.4 (Gibco, Cat. No. 10010-023; Lot. No. 2509235), TrypLE™ Express (Gibco, Cat. No. 12605-010; Lot. No. 2323417), Cell Counter (Hematocytometer)(As one, Cat. No. 4-458-01), and 0.4% Trypan Blue Solution (DYNEBIO, Cat. No. CBT3710; Lot. No. 20221111) were used.
(§2) The compounds of Examples were completely dissolved in DMSO (Sigma-Aldrich Cat. No. D2438, Lot. No. RNBL7287) and used in the experiment. 3×10^4 cells were seeded for each well of a 96-well plate (SPL), and the cells were cultured in total volume of 150 μl. Each compound was diluted 3-folds from the highest concentration of 3000 nM to the lowest concentration of 0.46 nM. After treating the compound to each well to make the total volume of 200 μl, it was cultured in a CO2 incubator (Thermo Fisher Science, Cat. No. 4111) for 5 days. Then, after treating EZ-Cytox (DOGEN, Cat.NO. EZ-3000, Lot. No. DLS2308) 20 μl in each well, it was cultured in CO2 incubator for 4 hours. The absorbance of the completely cultured sample was measured by setting the wavelength of a plate reader (BMG Labtech, CLARIOstar Plus) to […], and was measured after shaking for 3 minutes in a plate reader before measurement.
(§3) (A: IC50 is less than 20 nM, B: IC50 is 50 nM or less, C: IC50 is 100 nM or less)

[1] = tested on: NCI-H526 (H526) cell line; experiment: Cell viability assay for NCI-H526 cell line; settings: Homo sapiens, NCI-H526, 120 h, 5 days, EZ-Cytox, 0.46-3000 nM
Description: as §1, §2, §3

PLK1 = target: T1, PLK1 (Homo sapiens, UniProt P53350); experiment: Luciferase assay for PLK1 in HeLa LgBit (PLK1-HiBit KI) cell line; settings: released after thymidine block, compound 300 nM, luminescence after 9 hours
T1 construct: endogenous in cells; host or cells: HeLa LgBit (PLK1-HiBit KI): HeLa cells stably expressing LgBit, with CRISPR/Cas9 knock-in of HiBit at the endogenous PLK1 locus
Experimental: A HeLa cell line in which the LgBit vector was transfected and expressed stably was prepared. Then, after constructing gRNA and donor to express the HiBit amino acid sequence behind the C-terminal of the PLK1 gene, which was inherent in the cell, it was inserted into the cell together with a vector capable of expressing CRISPR/Cas9. Only the cells in which the insertion was completed and knock-in had progressed were selected, sub-cultured and used.
The compounds of Examples were completely dissolved in DMSO (Sigma-Aldrich Cat. No. D2438, Lot. No. RNBL5438) and used in the experiment.
In the case of HeLa LgBit (Plk1-HiBit KI), the compounds were treated after being released after thymidine block, and the process was as follows. Thymidine (Sigma-Aldrich Cat. No. T9250-5G) was completely dissolved in ddH2O and used in the experiment. For thymidine block, the products were treated with 2 mM of thymidine and then incubated for 24 hours. For release and chemical treatment, the medium was suctioned and washed with 1×PBS. TrypLE™ was added and incubated in 37° C. CO2 incubator (Thermo Fisher Science, Cat. No. 4111) for 5 mins. Cells neutralized by adding complete media were counted through a counter. For each well of a 96-well culture plate (SPL), 3.3×10^4 cells and a total medium volume of 150 μl were seeded and incubated in a CO2 incubator.
Each cell line was incubated in a CO2 incubator for 18 hours, and Endurazine (Promega, Cat. No. N257B) was added to each well to make up 4% of the total volume. After adding compounds of Examples in a 96-well white plate (SPL) to a concentration of 300 nM, the wavelength of the plate reader (BMG Labtech, CLARIOstar Plus) was set to 470-480 nM, and then the luminescence was tracked in real time.

T1 sequence (P53350 whole entry): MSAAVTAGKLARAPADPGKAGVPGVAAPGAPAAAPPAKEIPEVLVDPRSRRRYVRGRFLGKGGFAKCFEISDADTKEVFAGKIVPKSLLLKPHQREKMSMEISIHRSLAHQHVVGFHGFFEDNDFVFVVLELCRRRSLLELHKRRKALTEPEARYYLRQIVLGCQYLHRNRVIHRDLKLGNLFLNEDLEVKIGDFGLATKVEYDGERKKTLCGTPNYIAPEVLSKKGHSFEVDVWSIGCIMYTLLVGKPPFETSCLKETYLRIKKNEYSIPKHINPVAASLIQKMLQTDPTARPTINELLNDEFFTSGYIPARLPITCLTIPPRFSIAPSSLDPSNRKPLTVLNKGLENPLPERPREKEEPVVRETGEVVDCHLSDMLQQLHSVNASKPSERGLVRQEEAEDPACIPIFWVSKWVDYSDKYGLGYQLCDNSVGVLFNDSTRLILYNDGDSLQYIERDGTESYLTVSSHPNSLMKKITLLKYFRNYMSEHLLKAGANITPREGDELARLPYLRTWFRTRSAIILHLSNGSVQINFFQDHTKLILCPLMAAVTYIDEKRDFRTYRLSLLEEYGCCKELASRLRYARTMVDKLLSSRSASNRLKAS

| SMILES | pIC50 (NCI-H69 (H69) cell line) | pIC50 [1] | Value (luminescence value, PLK1-HiBit) (PLK1) |
| --- | --- | --- | --- |
| CC[C@@H]1C(=O)N(C)c2cnc(Nc3ccc(C(=O)NC4CCC(N5CCN(CCCc6ccc(NC7CCC(=O)NC7=O)cc6)CC5)CC4)cc3OC)nc2N1C1CCCC1 (stereo partly drawn) [Compound 3, 4-(((R)-8-cyclopentyl-7-ethyl-5-methyl-6-oxo-5,6,7,8-tetrahydropteridin-2-yl)amino)-N-((1r,4R)-4-(4-(3-(4-((2,6-dioxopiperidin-3-yl)amino)phenyl)propyl)piperazin-1-yl)cyclohexyl)-3-methoxybenzamide] | > 7.70 | > 7.70 | 0.253 |
| CC[C@@H]1C(=O)N(C)c2cnc(Nc3ccc(C(=O)NC4CCC(N5CCC(NCc6cccc7c6CN(C6CCC(=O)NC6=O)C7=O)CC5)CC4)cc3OC)nc2N1C1CCCC1 (stereo partly drawn) [Compound 12, 4-(((R)-8-cyclopentyl-7-ethyl-5-methyl-6-oxo-5,6,7,8-tetrahydropteridin-2-yl)amino)-N-((1r,4R)-4-(4-(((2-(2,6-dioxopiperidin-3-yl)-1-oxoisoindolin-4-yl)methyl)amino)piperidin-1-yl)cyclohexyl)-3-methoxybenzamide] | ≥ 7.00 | ≥ 7.30 | 0.372 |
| COc1cc(C(=O)NC2CCC(NCC3CCN(c4ccc(C5CCC(=O)NC5=O)cc4F)CC3)CC2)ccc1Nc1ncc2c(n1)N(C1CCCC1)CC(F)(F)C(=O)N2C (stereo not drawn) [Compound 30, 4-((9-cyclopentyl-7,7-difluoro-5-methyl-6-oxo-6,7,8,9-tetrahydro-5H-pyrimido[4,5-b][1,4]diazepin-2-yl)amino)-N-((1r,4r)-4-(((1-(4-(2,6-dioxopiperidin-3-yl)-2-fluorophenyl)piperidin-4-yl)methyl)amino)cyclohexyl)-3-methoxybenzamide] | ≥ 7.30 | ≥ 7.30 | 0.250 |
| CC[C@@H]1C(=O)N(C)c2cnc(Nc3ccc(C(=O)NC4CCN(C(=O)C(N)CN5CCN(c6ccc(C7CCC(=O)NC7=O)cc6)CC5)CC4)cc3OC(F)(F)F)nc2N1C1CCCC1 (stereo partly drawn) [Compound 10, N-(1-(2-amino-3-(4-(4-(2,6-dioxopiperidin-3-yl)phenyl)piperazin-1-yl)propanoyl)piperidin-4-yl)-4-(((R)-8-cyclopentyl-7-ethyl-5-methyl-6-oxo-5,6,7,8-tetrahydropteridin-2-yl)amino)-3-(trifluoromethoxy)benzamide] | ≥ 7.00 | ≥ 7.30 | 0.282 |
| CC[C@@H]1C(=O)N(C)c2cnc(Nc3ccc(C(=O)NN4CCC(N5CCC(CNc6ccc(C7CCC(=O)NC7=O)cc6)CC5)CC4)cc3OC)nc2N1C1CCCC1 (stereo partly drawn) [Compound 21, 4-(((R)-8-cyclopentyl-7-ethyl-5-methyl-6-oxo-5,6,7,8-tetrahydropteridin-2-yl)amino)-N-(4-(((4-(2,6-dioxopiperidin-3-yl)phenyl)amino)methyl)-[1,4′-bipiperidin]-1′-yl)-3-methoxybenzamide] | > 7.70 | > 7.70 | 0.144 |
| COc1cc(C(=O)NC2CCN(C(=O)CCN3CCN(c4ccc(NC5CCC(=O)NC5=O)cc4F)CC3)CC2)ccc1Nc1ncc2c(n1)N(C1CCCC1)CC(F)(F)C(=O)N2C (stereo not drawn) [Compound 26, 4-((9-cyclopentyl-7,7-difluoro-5-methyl-6-oxo-6,7,8,9-tetrahydro-5H-pyrimido[4,5-b][1,4]diazepin-2-yl)amino)-N-(1-(3-(4-(4-((2,6-dioxopiperidin-3-yl)amino)-2-fluorophenyl)piperazin-1-yl)propanoyl)piperidin-4-yl)-3-methoxybenzamide] | ≥ 7.30 | > 7.70 | 0.269 |
| CC[C@@H]1C(=O)N(C)c2cnc(Nc3ccc(C(=O)NC4CCN(C5CCN(CCc6ccc(C7CCC(=O)NC7=O)cc6)CC5)CC4)cc3OC)nc2N1C1CCCC1 (stereo partly drawn) [Compound 22, 4-(((R)-8-cyclopentyl-7-ethyl-5-methyl-6-oxo-5,6,7,8-tetrahydropteridin-2-yl)amino)-N-(1′-(4-(2,6-dioxopiperidin-3-yl)phenethyl)-[1,4′-bipiperidin]-4-yl)-3-methoxy benzamide] | ≥ 7.30 | > 7.70 | 0.145 |
| CC[C@@H]1C(=O)N(C)c2cnc(Nc3ccc(-c4nnc(CNC5CCC(NCC6CCN(c7ccc(C8CCC(=O)NC8=O)cc7F)CC6)CC5)o4)cc3OC)nc2N1C1CCCC1 (stereo partly drawn) [Compound 17, 3-(4-(4-((((1r,4r)-4-(((5-(4-(((R)-8-cyclopentyl-7-ethyl-5-methyl-6-oxo-5,6,7,8-tetrahydropteridin-2-yl)amino)-3-methoxyphenyl)-1,3,4-oxadiazol-2-yl)methyl)amino)cyclohexyl)amino)methyl)piperidin-1-yl)-3-fluorophenyl)piperidine-2,6-dione] | ≥ 7.30 | > 7.70 | 0.172 |
| CC[C@@H]1C(=O)N(C)c2cnc(Nc3ccc(C(=O)NC4CCC(N5CCN(CCNc6ccc(C7CCC(=O)NC7=O)cc6)CC5)CC4)cc3OC)nc2N1C1CCCC1 (stereo partly drawn) [Compound 1, 4-(((R)-8-cyclopentyl-7-ethyl-5-methyl-6-oxo-5,6,7,8-tetrahydropteridin-2-yl)amino)-N-((1r,4R)-4-(4-(2-((4-(2,6-dioxopiperidin-3-yl)phenyl)amino)ethyl)piperazin-1-yl)cyclohexyl)-3-methoxybenzamide] | > 7.70 | > 7.70 | 0.139 |
| CC[C@@H]1C(=O)N(C)c2cnc(Nc3ccc(C(=O)NC4CCC(N5CCN(CCNc6cccc7c6CN(C6CCC(=O)NC6=O)C7=O)CC5)CC4)cc3OC)nc2N1C1CCCC1 (stereo partly drawn) [Compound 5, 4-(((R)-8-cyclopentyl-7-ethyl-5-methyl-6-oxo-5,6,7,8-tetrahydropteridin-2-yl)amino)-N-((1r,4R)-4-(4-(2-((2-(2,6-dioxopiperidin-3-yl)-1-oxoisoindolin-4-yl)amino)ethyl)piperazin-1-yl)cyclohexyl)-3-methoxybenzamide] | > 7.70 | > 7.70 | 0.376 |
| CC[C@@H]1C(=O)N(C)c2cnc(Nc3ccc(C(=O)NC4CCN(C(=O)CCN5CCN(c6ccc(NC7CCC(=O)NC7=O)cc6)CC5)CC4)cc3OC(F)(F)F)nc2N1C1CCCC1 (stereo partly drawn) [Compound 14, 4-(((R)-8-cyclopentyl-7-ethyl-5-methyl-6-oxo-5,6,7,8-tetrahydropteridin-2-yl)amino)-N-(1-(3-(4-(4-((2,6-dioxopiperidin-3-yl)amino)phenyl)piperazin-1-yl)propanoyl)piperidin-4-yl)-3-(trifluoromethoxy)benzamide] | ≥ 7.30 | > 7.70 | 0.269 |
